Molecular target: Neuronal acetylcholine receptor
Test: Ability to displace radioligand [3H](-)-cytisine from Nicotinic acetylcholine receptor in rat brain membrane.
Assay type: cell membranes

Row | Compound | Ki [nM]
1 | C[C@@H](N)COc1ccc(Cl)nc1 | 5.3
2 | C[C@@H](N)COc1ccc(F)nc1 | 6.6
3 | N[C@H](COc1cnc(Cl)c(/C=C/c2ccncc2)c1)Cc1ccccc1 | 9.9
4 | NCCOc1cncc(Cl)c1 | 140
5 | CC[C@H](N)COc1ccc(Cl)nc1 | 15
6 | CN[C@H](C)COc1ccc(F)nc1 | 11
7 | C[C@@H](N)COc1cnc(Cl)c(Br)c1 | 1.5
8 | CN[C@@H](C)COc1ccc(Cl)nc1 | 41
9 | C[C@@H](N)COc1cnc(Cl)c(/C=C/c2ccncc2)c1 | 0.081
10 | Cc1ccc(OCCN(C)C)cn1 | 140
11 | CNCCOc1cccnc1 | 17
12 | C[C@@H](COc1cnc(Cl)c(/C=C/c2ccncc2)c1)N(C)C | 0.37
13 | CC[C@@H](COc1cnc(Cl)c(/C=C/c2ccncc2)c1)N(C)C | 3.6
14 | CC[C@H](N)COc1cnc(Cl)c(/C=C/c2ccncc2)c1 | 0.18
15 | CC[C@H](N)COc1ccc(F)nc1 | 39
16 | C[C@@H](COc1cnc(Cl)c(Br)c1)N(C)C | 31
17 | C[C@H](COc1ccc(F)nc1)N(C)C | 70
18 | CN[C@H](COc1cccnc1)Cc1ccccc1 | 690
19 | CC[C@@H](COc1ccc(F)nc1)NC | 220
20 | CN(C)[C@H](COc1cnc(Cl)c(/C=C/c2ccncc2)c1)Cc1ccccc1 | 4.6

Row | Compound | Ki [nM]
21 | CNCCOc1cnc(Cl)c(Cl)c1 | 13
22 | CN(C)CCOc1cncc(Cl)c1 | 74
23 | CNCCOc1ccc(Cl)nc1 | 22
24 | CN[C@H](COc1cnc(Cl)c(/C=C/c2ccncc2)c1)Cc1ccccc1 | 2.6
25 | C[C@@H](COc1ccc(F)nc1)N(C)C | 100
26 | C[C@H](N)COc1ccc(F)nc1 | 8.7
27 | CN[C@@H](C)COc1cnc(Cl)c(Br)c1 | 11
28 | CNCCOc1cnc(Cl)c(Br)c1 | 14.3
29 | CN[C@@H](C)COc1ccc(F)nc1 | 69
30 | Cc1cc(OC[C@H](C)N)cnc1Cl | 0.52
31 | Cc1cc(OC[C@@H](C)N(C)C)cnc1Cl | 7.2
32 | CN[C@H](COc1cnc(Cl)c(Br)c1)Cc1ccccc1 | 85
33 | CC[C@H](N)COc1cnc(Cl)c(Br)c1 | 15
34 | COc1ccc(OCCN(C)C)cn1 | 406
35 | CN(C)CCOc1cncc([N+](=O)[O-])c1 | 260
36 | CN[C@@H](C)COc1cnc(Cl)c(C)c1 | 5.5
37 | CN[C@H](C)COc1ccc(Cl)nc1 | 5.9
38 | Cc1cc(OC[C@@H](C)N)cnc1Cl | 0.98
39 | CNCCOc1cncc([N+](=O)[O-])c1 | 560
40 | CN(C)CCOc1cncc(Br)c1 | 50

Row | Compound | Ki [nM]
41 | Cc1cc(OC[C@H](C)N(C)C)cnc1Cl | 9.6
42 | CN[C@H](C)COc1cnc(Cl)c(C)c1 | 0.57
43 | CN[C@H](C)COc1cnc(Cl)c(Br)c1 | 1.5
44 | C[C@H](COc1cnc(Cl)c(Br)c1)N(C)C | 12
45 | N[C@H](COc1cnc(Cl)c(Br)c1)Cc1ccccc1 | 100
46 | CN(C)CCOc1cncc(C(F)(F)F)c1 | 250
47 | CN(C)[C@@H](CCCl)COc1cncc(C(F)(F)F)c1 | 5.5
48 | CNCCOc1cncc(Cl)c1 | 37
49 | C[C@H](COc1cnc(Cl)c(/C=C/c2ccncc2)c1)N(C)C | 0.1
50 | CNCCOc1ccc(OC)nc1 | 620
51 | CN(C)CCOc1ccc(Cl)nc1 | 79
52 | CN(C)CCOc1cnc(Cl)c(Cl)c1 | 16
53 | CNCCOc1ccc(C)nc1 | 43
54 | CN(C)CCOc1cnc(Cl)c(Br)c1 | 7.1
55 | CN[C@H](C)COc1cnc(Cl)c(/C=C/c2ccncc2)c1 | 0.077
56 | C[C@H](N)COc1cnc(Cl)c(/C=C/c2ccncc2)c1 | 0.076
57 | CN(C)[C@H](COc1cnc(Cl)c(Br)c1)Cc1ccccc1 | 320
58 | CNCCOc1cncc(N)c1 | 27
59 | C[C@H](N)COc1ccc(Cl)nc1 | 4.5
60 | C[C@H](N)COc1cnc(Cl)c(Br)c1 | 1.5

Molecular target: not listed separately
Test: Ability to displace radioligand [3H](-)-cytisine from Neuronal nicotinic receptor in rat brain membrane was determined.
Assay type: cell membranes

Row | Compound | Ki [nM]
61 | Clc1ccc(OC[C@H]2CCN2)cn1 [TEBANICLINE] | 0.05

— ChEMBL document CHEMBL1135851, “Synthesis and biological evaluation of pyridine-modified analogues of 3-(2-aminoethoxy)pyridine as novel nicotinic receptor ligands” (Bioorg Med Chem Lett, 2002)
